Here are results for one molecule from patent publication US20210177814A1, “USE OF GUANABENZ OR DERIVATES THEREOF FOR THE TREATMENT OF TYPE I IFN-DEPENDENT PATHOLOGIES” (INSERM (Institut National de la Santé et de la Recherche …, priority 2018, published 2021).

The subject of the assay is endosomal TLRs. The assay is described as follows: TMPD (pristane) + CpG ODN induced SLE model. It is filed as in vivo, mouse. As for the experimental part:
At day 7 mice were injected with CpG ODN 1585 (50 μg/20 g). Blood was collected once a month to dose the circulating autoantibodies level. Mice were sacrificed at week 24 after disease induction. (A) Flow cytometry analysis of peritoneum exudate cells populations (PEC) at day 14. […] Statistical significance was assigned using two tailed Student's t test (* p<0.05). (C) Level of circulating anti-RNA antibodies (normalized to control mice), anti-nuclear antibodies (arbitrary units), presence of lipogranulomas in the peritoneal cavity (arbitrary score) and glomerulopathy (histological score blindly determined by an anatomopathologist) at week 24. Statistical significance was assigned by a one-way ANOVA, followed by Tukey range test (* p<0.05;** p<0.005; ***p<0.0005.). N.S., not significant. n values in the figure indicate the number of mice.
Wild type female mice C57BL/6 of 6 weeks of age were injected i.p. with 500 μL of TMPD (Sigma Aldrich) or PBS. From day 1 to day 13 mice were injected i.p. every 2 days with GBZ or PBS/DMSO 2 mg/kg. Mice were injected i.p. at day 7 with ODN 1585 or PBS 50 μg/20 g of mouse. Mice were sacrificed at day 14 or after 6 months. At day 14, peritoneal exudate cells (PEC) were taken for flow cytometry analysis. After 6 months kidneys were taken for immunohistochemistry. During 6 months, blood serum collection was effectuated once a month, from month 2 after the injection of TMPD up to one week before the animal sacrifice. Serum was used to evaluate the concentration of circulating autoantibodies. Anti-RNA ELISA. Evaluation of autoantibodies against RNA was performed by coating ELISA plates with 50 μl/well of 5 μg/ml mouse RNA or DNA in PBS and incubated overnight at 4° C. Next day, the plates were incubated with 1:50 or 1:100 diluted serum samples in working solution (PBS+0.05% Tween20+1% BSA), and the assay was developed with HRP-labeled goat anti-mouse IgG (Southern Biotech).
Mouse kidney and liver were fixed in 10% buffered formalin for 24 h, then the tissues were dehydrated and embedded in paraffin. Tissue sections of 3.5 μm were cut using the microtom Leica RM2245. Hematoxylin-eosin staining was effectuated automatically with Leica autostainer XL. Finally, the slides were mounted with entellan and kept at room temperature. Biopsies were analyzed by an anatomopathologist and the clinical score was assigned in a blinded way. Pictures were taken with Nikon Eclipse.

Setting [1] is: 22 weeks after TMPD injection, vs TMPD and CpG only.

Turning to `NC(N)=N/N=C/c1c(Cl)cccc1Cl` [GBZ, 2-(2,6-dichlorobenzylidene)-hydrazinecarboximidamide], under setting [1], the “circulating anti-RNA immunoglobulins titer” value is reported as “substantially lower” and the “circulating anti-nuclear immunoglobulins titer” value was “substantially lower”. Also, where the note is “C57BL/6, control vs GBZ-treated animals”, the “Ig-complexes deposits in the kidneys (glomerulonephritis)” value is reported as “unable to induce overall sufficient glomerulonephritis to observe significant differences”. For the same molecule, where the note is “GBZ-treated vs TMPD and CpG only”, the “lipogranulomas in the peritoneal cavity” value was “considerably smaller numbers”. Where the note is “TMPD+CpG injected mice, recurrent GBZ injections”, the “transcriptional up-regulation of TNF-α, ISG 15 and CH25H in PECs (qPCR)” value is recorded as “strongly inhibited”. Also, the “immune cells migration into or from the peritoneal cavity (PEC flow cytometry)” value (day 14, GBZ 2 mg/kg i.p. every 2 days, day 1 to 13) is reported as “did not prevent”.
